Laboratory results as given in patent US20250346576A1, “KCNT1 INHIBITORS COMPRISING A PYRAZOLE CORE AND METHODS OF USE” (PRAXIS PRECISION MEDICINES, INC., priority 2022, published 2025).

What was measured:
[1] = Log D assay (1-octanol/buffer shake flask, LC/MS/MS); format: physicochemical; conditions: 1-octanol/phosphate buffer; 1-octanol / 0.1 M phosphate buffer pH 7.4
Text: Log D: The Log D assay is a miniaturized 1-octanol/buffer shake flask method followed by LC/MS/MS analysis. It is typically measured by determining the partition of a compound between an organic solvent (1-octanol) and an aqueous buffer (0.1 M phosphate buffer, pH 7.4; Varied buffer pH can be set). Since log D is pH dependent, the pH of the aqueous phase is always specified and is commonly measured at pH 7.4, the physiological pH of body fluids. […] Correct the peak areas by dilution factors and embedded internal standard, and the ratio of the corrected peak areas will be used to calculate the results (Log D value). • 8) Use the QC samples to monitor the process Log D determination. • 9) Data Analysis: The Log D value for each compound is calculated by the following equation: […]

[2] = Liver microsome metabolic stability assay (NADPH); format: in vitro ADME; conditions: human liver microsomes, 1.0 μM compound, 0.5 mg/ml protein, 37° C., read-out: CLint (HClint)
Protocol: Liver Microsome Metabolic Stability Assay (NADPH): • 1) Test compounds were incubated at 37° C. with liver microsomes (pooled from multiple donors) at 1.0 μM in the presence of NADPH (˜1.0 mM) at 0.5 mg/ml microsomal protein. • 2) Positive controls include testosterone (3A4 substrate), propafenone (2D6) and diclofenac (2C9). They are also incubated with microsomes in the presence of NADPH. • 3) Time samples (0, 5, 15, 30, 45 and 60 minutes) are removed and immediately mixed with cold acetonitrile containing internal standard (IS). Test compound incubated with microsomes without NADPH for 60 min are also included. • 4) Duplicate point for each test condition (n=2). • 5) Samples are analyzed by LC/MS/MS; disappearance of test compound is assessed base on peak area ratios of analyte/IS (no standard curve). • 6) An excel data summary, calculated intrinsic clearance and T1/2 values are provided. • 7) The following equation is used to calculate the microsome clearance: […]
The mg microsomal protein/g liver weight is 45 for 5 species. The liver weight values will use 40 g/kg, 30 g/kg, 32 g/kg, 20 g/kg and 88 g/kg for rat, monkey, dog, human and mouse, respectively. The liver clearance will be calculated using CLint(mic) with the following equation: […]

[3] = Kinetic solubility assay (shake flask, HPLC-UV); format: physicochemical; conditions: aqueous buffer, kinetic from dmso stock, 50 mM pH 7.4 phosphate buffer, room temperature
Protocol: Kinetic Solubility Assay: The Kinetic solubility assay employed the shake flask method followed by HPLC-UV analysis. The following step-wise procedure is used: • 1) Weigh and dissolve the samples in 100% DMSO as the stock solution of 10 mM. About 10 μL (compound/Media) of stock solution is needed in this assay. • 2) Add the test compounds and controls (10 mM in DMSO, 10 μL/vial) into the 50 mM pH 7.4 phosphate buffer (490 μL/well) placed in a Mini-Uniprep filter. • 3) Vortex the samples of kinetic solubility for 2 minutes. • 4) Incubate and shake the solubility solutions on an orbital shaker with 800 rpm at room temperature for 24 hours. • 5) Centrifuge at 4000 rpm, 20° C. for 10 minutes. • 6) Transfer 400 μL (with or without dilution) of each solubility supernatant into 96-deep well for analysis after the samples will be directly filtered by the syringeless filter device. • 7) Determine the test compound concentration of the filtrate using HPLC-UV. • 8) Inject at least 5 UV standard solutions into HPLC from low to high concentration subsequently and then test the Kinetic solubility supernatant in duplicate. • 9) Use the QC samples to monitor Kinetic solubility determination process.

Question: Which logD at 1 h [1] does the source give for Cn1nc(C(F)(F)F)cc1C(=O)NC(C)(C)c1cc(-c2ccnc(C(F)(F)F)c2)nn1C [Compound 1063, 1-methyl-N-(2-(1-methyl-3-(2-(trifluoromethyl)pyridin-4-yl)-1H-pyrazol-5-yl)propan-2-yl)-3-(trifluoromethyl)-1H-pyrazole-5-carboxamide] here?
Answer: Its logD at 1 h is 3.

Question: What about the microsomal CLint at 1 μM [2] of the same molecule?
Answer: The microsomal CLint at 1 μM was < 9.6 µL/min/mg.

Question: What about the solubility kinetic at 24 h [3] of the same molecule?
Answer: The solubility kinetic at 24 h was < 1.6 µM.

Question: Which logD at 1 h [1] does the source give for Cn1nc(C(F)(F)F)cc1C(=O)NC1(c2cc(-c3ccnc(C(F)(F)F)c3)nn2C)CCC1 [Compound 1064, 1-methyl-N-(1-(1-methyl-3-(2-(trifluoromethyl)pyridin-4-yl)-1H-pyrazol-5-yl)cyclobutyl)-3-(trifluoromethyl)-1H-pyrazole-5-carboxamide] here?
Answer: The logD at 1 h was 4.4.

Question: What about the microsomal CLint at 1 μM [2] of the same molecule?
Answer: The microsomal CLint at 1 μM was < 9.6 µL/min/mg.

Question: And the solubility kinetic at 24 h [3]?
Answer: The solubility kinetic at 24 h was < 1.6 µM.
